Read-outs that look alike come from different tables or passages of the source.
What was measured:
[1] = pH-dependent solubility of the drug; format: physicochemical
Source text: The present invention provides a stable extended release single unit dosage form composition such as matrix tablets which could provide substantially linear drug release for a prolonged duration of time during the transit through varying pHs of the GIT.
The prior art formulation approaches lead to a pharmaceutical composition which has a suitable fast disintegration time but not necessarily a suitable dissolution rate of the active agent under acidic conditions, i.e. a multiparticulate composition in the form of a tablet with an extragranularly added disintegrant will rapidly disintegrate into granules but the dissolution of the drug substance from the composition and/or the disintegrated composition under acidic conditions may be unsuitable and, low due to the solubility properties of the active agent itself. The availability of an active agent with respect to absorption, i.e. entrance into the circulatory system, is dependant on the presence of the active agent in dissolved form as it is generally accepted that only dissolved substances are capable of passing the mucous membranes in the gastro-intestinal tract. Therefore, it is important that the dissolution of the active agent is suitably fast even under acidic conditions in order to enable absorption from the stomach so that the absorption of the active agent is continuous throughout the GIT, and the bioavailability is not compromised.

[2] = cited from earlier work
[3] = 423 de novo kidney allograft recipients; cited from earlier work
[4] = controlled de novo and maintenance renal studies

Row | solubility ([1]; pH above 6.0) | solubility ([1]; pH below 6.0) | solubility in an acidic medium ([1]; pH of from about 1 to about 3) | Compound | Adverse Events (%): Anemia [2, 4] | Adverse Events (%): Constipation [2, 4] | Adverse Events (%): Diarrhoea [2, 4] | Adverse Events (%): Dyspepsia [2, 4] | Adverse Events (%): Insomnia [2, 4] | Adverse Events (%): Leukopenia [2, 4] | Adverse Events (%): Nausea [2, 4] | Adverse Events (%): Urinary Tract Infection [2, 4] | Adverse Events (%): Vomiting [2, 4] | Adverse Events (%): CMV infections ([2]; in vivo) | incidence of GI adverse events [3] | Adverse Events (%): CMV infections [2, 4]
1 | high solubility | poor solubility | substantially low solubility | COc1c(C)c2c(c(O)c1C/C=C(\C)CCC(=O)O)C(=O)OC2 [MPS, mycophenolate sodium] | 21.9% | 39.5% | 23.5% | 19% | 23.8% | 20.5% | 27.1% | 33.3% | 23% | 18.1% | 79.8% | 
2 |  |  |  | COc1c(C)c2c(c(O)c1C/C=C(\C)CCC(=O)OCCN1CCOCC1)C(=O)OC2 [MMF, mycophenolate mofetil] | 21.6% | 38.0% | 24.8% | 22.5% | 23.5% | 19.2% | 29.1% | 29.1% | 20% |  | 77.1% | 20.2%
